Assay results taken from patent US7074789B2, “Kinase inhibitors” (Amgen Inc., priority 1999, dated 2006).

Legend:
Type in all cases: biochemical
PDGFRB = biological target: T1, PDGFRB (Homo sapiens, UniProt P09619); assay: Kinase inhibition assay (33P transfer), PDGFRB; conditions: read-out: PDGFRB-1
T1 construct: Kinases are expressed as either kinase domains or full length constructs; made in house

Zap-70 = biological target: T2, Zap-70 (Homo sapiens, UniProt P43403); assay: Kinase inhibition assay (33P transfer), Zap-70; conditions: Table 3, class symbols; read-out: Zap-1
T2 construct: Kinases are expressed as either kinase domains or full length constructs; made in house
T2 sequence (P43403 1-619): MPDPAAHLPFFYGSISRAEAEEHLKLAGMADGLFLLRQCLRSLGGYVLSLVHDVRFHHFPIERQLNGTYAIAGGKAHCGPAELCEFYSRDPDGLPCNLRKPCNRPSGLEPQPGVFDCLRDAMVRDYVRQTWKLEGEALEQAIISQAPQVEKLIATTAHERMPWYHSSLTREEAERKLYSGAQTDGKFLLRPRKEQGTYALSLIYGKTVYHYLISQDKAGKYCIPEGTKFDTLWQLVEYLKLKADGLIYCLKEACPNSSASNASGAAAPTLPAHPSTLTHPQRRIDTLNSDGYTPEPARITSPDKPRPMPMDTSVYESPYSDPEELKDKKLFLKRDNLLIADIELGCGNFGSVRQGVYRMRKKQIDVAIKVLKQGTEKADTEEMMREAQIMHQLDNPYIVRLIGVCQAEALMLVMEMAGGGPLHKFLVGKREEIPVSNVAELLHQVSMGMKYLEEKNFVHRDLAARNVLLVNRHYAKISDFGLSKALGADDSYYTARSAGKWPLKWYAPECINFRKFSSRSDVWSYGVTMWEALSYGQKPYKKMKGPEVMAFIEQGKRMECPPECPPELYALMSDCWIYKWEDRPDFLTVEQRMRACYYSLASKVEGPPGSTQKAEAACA
Procedure, shortened: (§1)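 Radiometric readout: 33P incorporated into surface-bound poly(Glu,Tyr) 4:1 or poly(Arg,Ser) 3:1 is counted by liquid scintillation after a 0.5% phosphoric acid wash. Enzymes were GST or polyHis fusions (kinase domain or full length) from E. coli or High Five insect cells.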

Kdr = biological target: T3, Kdr (Homo sapiens, UniProt P35968); assay: Kinase inhibition assay (33P transfer), Kdr; conditions: Table 3, class symbols; read-out: KDR-1
T3 construct: Kinases are expressed as either kinase domains or full length constructs; made in house
Procedure, shortened: as §1

Lck = biological target: T4, Lck (Homo sapiens, UniProt P06239); assay: Kinase inhibition assay (33P transfer), Lck; conditions: Table 3, class symbols; read-out: Lck-1
T4 construct: Kinases are expressed as either kinase domains or full length constructs; made in house
Procedure, shortened: as §1

IGFR-1 = biological target: T5, IGFR-1 (Homo sapiens, UniProt P08069); assay: Kinase inhibition assay (33P transfer), IGFR-1; conditions: Table 2, class symbols A-E
T5 construct: Kinases are expressed as either kinase domains or full length constructs; made in house

EGFR = biological target: T6, EGFR (Homo sapiens, UniProt P00533); assay: Kinase inhibition assay (33P transfer), EGFR; conditions: Table 2, class symbols A-E; read-out: EGFR-1
T6 construct: Kinases are expressed as either kinase domains or full length constructs; made in house
Procedure, shortened: (§2)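 Using immobilised substrate copolymers (poly(Glu,Tyr) 4:1; poly(Arg,Ser) 3:1) and [33P]ATP, purified fusion kinases were allowed to react; plates were then rinsed in 0.5% phosphoric acid and counted in a scintillation detector. Half-maximal inhibition of label transfer defines IC50.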

AKT = biological target: T7, AKT (Homo sapiens, UniProt Q9Y243); assay: Kinase inhibition assay (33P transfer), AKT; conditions: Table 2, class symbols A-E; read-out: AKT3-1
T7 construct: Kinases are expressed as either kinase domains or full length constructs; made in house
Procedure, shortened: as §1

c-Met = biological target: T8, c-Met (Homo sapiens, UniProt P08581); assay: Kinase inhibition assay (33P transfer), c-Met; conditions: Table 2, class symbols A-E; read-out: Met-1
T8 construct: Kinases are expressed as either kinase domains or full length constructs; made in house
Procedure, shortened: as §2

ErbB2 = biological target: T9, ErbB2 (Homo sapiens, UniProt P04626); assay: Kinase inhibition assay (33P transfer), ErbB2; conditions: read-out: ErbB2-2
T9 construct: Kinases are expressed as either kinase domains or full length constructs; made in house
Procedure, shortened: as §2

Itk = biological target: T10, Itk (Homo sapiens, UniProt Q08881); assay: Kinase inhibition assay (33P transfer), Itk; conditions: Table 3, class symbols; read-out: Itk-1
T10 construct: Kinases are expressed as either kinase domains or full length constructs; made in house
T10 sequence (Q08881 1-620): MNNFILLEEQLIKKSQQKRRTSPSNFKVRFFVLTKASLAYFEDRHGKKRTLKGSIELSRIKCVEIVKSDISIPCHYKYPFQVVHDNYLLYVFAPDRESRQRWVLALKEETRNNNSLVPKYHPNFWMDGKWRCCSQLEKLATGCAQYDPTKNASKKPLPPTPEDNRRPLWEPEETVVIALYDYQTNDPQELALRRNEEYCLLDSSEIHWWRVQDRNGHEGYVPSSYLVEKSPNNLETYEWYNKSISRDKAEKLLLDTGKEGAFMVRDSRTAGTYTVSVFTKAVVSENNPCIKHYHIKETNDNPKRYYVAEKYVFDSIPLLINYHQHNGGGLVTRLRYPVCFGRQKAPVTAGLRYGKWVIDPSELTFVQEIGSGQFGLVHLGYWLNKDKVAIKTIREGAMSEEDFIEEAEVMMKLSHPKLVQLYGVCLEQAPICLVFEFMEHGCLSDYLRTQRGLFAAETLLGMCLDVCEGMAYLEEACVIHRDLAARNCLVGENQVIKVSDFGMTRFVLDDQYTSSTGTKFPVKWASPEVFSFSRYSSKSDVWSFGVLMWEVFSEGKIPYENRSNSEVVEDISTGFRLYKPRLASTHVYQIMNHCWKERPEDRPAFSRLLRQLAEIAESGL
Procedure, shortened: as §2

T4 sequence (P06239 whole entry, species assumed, the tested form may be a part): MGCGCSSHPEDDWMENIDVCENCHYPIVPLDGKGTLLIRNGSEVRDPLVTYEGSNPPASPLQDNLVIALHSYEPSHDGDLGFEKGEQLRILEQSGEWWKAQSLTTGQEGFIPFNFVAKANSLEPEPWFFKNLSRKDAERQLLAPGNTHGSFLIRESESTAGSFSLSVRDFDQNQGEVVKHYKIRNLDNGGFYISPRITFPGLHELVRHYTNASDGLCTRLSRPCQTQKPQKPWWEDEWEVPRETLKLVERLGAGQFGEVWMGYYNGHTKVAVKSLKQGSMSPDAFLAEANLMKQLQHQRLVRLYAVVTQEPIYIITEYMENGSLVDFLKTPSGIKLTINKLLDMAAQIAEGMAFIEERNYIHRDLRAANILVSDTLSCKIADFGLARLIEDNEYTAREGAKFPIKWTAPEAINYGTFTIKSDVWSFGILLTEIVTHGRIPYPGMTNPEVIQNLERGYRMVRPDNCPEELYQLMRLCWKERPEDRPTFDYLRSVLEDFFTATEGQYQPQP
T6 sequence (P00533 25-1210, species assumed): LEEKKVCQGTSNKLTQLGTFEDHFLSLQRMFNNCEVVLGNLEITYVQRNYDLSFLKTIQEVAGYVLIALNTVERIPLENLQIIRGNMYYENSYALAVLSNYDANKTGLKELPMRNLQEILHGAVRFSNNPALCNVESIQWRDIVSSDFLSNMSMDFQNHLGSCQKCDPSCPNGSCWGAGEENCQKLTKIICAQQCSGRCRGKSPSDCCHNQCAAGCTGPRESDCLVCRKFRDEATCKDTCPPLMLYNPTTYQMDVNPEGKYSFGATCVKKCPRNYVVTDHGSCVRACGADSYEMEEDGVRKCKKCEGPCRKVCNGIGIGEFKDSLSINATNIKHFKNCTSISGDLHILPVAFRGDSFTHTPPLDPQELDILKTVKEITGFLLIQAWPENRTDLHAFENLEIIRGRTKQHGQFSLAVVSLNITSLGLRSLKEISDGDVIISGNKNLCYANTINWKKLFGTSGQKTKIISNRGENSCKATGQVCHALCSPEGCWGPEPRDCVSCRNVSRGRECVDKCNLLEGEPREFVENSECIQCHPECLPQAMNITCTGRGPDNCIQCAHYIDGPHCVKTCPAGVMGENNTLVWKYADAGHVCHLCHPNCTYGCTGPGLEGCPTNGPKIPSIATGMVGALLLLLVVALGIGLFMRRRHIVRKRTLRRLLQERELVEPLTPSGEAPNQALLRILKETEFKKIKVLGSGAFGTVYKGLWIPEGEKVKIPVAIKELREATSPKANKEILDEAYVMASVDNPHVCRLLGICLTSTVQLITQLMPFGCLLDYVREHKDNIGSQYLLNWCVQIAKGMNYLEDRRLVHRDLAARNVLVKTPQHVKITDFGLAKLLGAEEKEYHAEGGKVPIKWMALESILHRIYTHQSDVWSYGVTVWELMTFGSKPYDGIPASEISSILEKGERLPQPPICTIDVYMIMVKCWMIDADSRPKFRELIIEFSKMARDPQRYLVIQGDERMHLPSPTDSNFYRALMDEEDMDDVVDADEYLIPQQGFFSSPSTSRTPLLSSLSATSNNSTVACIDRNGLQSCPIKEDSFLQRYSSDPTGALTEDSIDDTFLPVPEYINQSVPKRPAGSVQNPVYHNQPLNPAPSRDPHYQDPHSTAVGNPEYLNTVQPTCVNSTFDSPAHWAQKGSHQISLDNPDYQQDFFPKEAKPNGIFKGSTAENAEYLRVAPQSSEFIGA
T1 sequence (P09619 33-1106, species assumed): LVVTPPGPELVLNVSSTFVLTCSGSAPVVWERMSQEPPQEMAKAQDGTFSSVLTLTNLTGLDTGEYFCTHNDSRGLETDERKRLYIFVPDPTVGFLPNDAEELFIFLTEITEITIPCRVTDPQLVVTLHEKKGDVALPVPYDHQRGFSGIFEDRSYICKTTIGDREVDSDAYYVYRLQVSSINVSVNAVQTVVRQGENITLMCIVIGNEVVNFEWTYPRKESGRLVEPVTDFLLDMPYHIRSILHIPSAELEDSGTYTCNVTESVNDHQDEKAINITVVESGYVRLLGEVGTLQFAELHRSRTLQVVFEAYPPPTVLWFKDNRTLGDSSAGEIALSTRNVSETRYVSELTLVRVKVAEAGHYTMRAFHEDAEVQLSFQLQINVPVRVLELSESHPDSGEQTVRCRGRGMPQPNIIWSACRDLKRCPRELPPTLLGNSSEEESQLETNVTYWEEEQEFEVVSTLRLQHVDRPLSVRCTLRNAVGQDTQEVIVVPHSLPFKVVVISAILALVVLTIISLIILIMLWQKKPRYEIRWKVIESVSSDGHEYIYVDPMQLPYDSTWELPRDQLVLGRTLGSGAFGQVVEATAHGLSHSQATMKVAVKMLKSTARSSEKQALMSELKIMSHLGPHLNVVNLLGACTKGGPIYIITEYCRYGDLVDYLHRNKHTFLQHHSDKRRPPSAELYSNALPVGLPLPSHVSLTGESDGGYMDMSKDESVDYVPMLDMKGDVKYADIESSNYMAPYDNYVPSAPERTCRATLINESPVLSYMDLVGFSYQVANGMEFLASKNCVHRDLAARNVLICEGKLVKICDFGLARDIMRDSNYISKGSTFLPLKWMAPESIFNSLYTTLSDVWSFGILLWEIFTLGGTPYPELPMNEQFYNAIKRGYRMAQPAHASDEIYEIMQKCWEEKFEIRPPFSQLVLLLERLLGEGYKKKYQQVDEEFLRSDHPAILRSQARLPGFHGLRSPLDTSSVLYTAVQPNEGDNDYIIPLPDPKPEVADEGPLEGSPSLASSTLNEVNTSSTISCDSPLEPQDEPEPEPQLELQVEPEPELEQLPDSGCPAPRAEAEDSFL
T7 sequence (Q9Y243 whole entry, the tested form may be a part): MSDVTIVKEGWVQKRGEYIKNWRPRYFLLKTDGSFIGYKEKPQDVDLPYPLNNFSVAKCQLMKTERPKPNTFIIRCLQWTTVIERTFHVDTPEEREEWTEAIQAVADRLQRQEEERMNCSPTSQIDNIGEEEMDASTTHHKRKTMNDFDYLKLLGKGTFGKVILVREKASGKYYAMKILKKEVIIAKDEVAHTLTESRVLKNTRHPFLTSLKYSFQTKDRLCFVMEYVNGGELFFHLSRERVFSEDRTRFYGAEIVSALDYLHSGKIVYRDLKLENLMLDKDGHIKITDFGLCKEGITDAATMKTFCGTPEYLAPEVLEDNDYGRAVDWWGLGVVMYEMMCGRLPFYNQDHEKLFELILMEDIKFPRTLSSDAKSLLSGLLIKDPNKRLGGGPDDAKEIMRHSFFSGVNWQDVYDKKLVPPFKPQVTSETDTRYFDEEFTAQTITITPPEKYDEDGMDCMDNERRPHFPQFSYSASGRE
T3 sequence (P35968 20-1356, species assumed): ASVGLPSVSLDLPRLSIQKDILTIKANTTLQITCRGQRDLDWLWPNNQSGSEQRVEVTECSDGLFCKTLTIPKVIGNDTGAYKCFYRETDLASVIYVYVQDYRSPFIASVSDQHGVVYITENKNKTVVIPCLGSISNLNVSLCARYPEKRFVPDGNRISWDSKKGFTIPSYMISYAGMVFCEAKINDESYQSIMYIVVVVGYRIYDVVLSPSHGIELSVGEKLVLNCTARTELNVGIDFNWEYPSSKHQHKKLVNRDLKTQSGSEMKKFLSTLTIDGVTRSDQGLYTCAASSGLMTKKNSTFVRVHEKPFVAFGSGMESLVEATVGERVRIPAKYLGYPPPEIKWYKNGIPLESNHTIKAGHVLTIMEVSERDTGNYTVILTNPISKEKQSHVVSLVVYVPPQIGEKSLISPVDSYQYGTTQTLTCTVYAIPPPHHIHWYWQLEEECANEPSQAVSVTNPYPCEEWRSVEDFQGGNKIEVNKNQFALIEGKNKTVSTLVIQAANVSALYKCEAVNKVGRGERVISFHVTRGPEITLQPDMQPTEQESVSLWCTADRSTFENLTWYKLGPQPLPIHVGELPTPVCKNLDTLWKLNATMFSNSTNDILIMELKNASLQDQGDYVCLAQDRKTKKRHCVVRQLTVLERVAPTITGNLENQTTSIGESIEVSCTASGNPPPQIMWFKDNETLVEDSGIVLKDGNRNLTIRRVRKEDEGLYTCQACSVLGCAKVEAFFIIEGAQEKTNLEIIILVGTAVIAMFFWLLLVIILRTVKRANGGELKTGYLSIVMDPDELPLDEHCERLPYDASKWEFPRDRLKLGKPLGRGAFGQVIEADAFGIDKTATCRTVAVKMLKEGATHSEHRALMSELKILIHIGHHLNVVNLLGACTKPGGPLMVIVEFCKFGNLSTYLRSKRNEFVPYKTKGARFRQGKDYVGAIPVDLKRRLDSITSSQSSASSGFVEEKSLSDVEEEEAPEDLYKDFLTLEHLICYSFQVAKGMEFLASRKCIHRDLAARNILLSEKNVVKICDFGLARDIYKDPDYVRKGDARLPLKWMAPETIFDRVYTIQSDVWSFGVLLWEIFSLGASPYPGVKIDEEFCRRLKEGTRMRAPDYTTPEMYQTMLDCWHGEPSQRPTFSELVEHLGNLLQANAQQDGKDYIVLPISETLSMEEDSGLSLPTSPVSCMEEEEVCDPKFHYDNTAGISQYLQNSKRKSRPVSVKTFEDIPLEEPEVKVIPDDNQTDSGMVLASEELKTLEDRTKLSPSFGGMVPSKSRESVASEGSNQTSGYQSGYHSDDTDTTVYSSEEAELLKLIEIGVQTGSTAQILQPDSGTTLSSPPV

| SMILES | IC50 (PDGFRB) [µM] | IC50 (Zap-70) [µM] | IC50 (Kdr) [µM] | IC50 (Lck) [µM] | IC50 (IGFR-1) [µM] | IC50 (EGFR) [µM] | IC50 (AKT) [µM] | IC50 (c-Met) [µM] | IC50 (ErbB2) [µM] | IC50 (Itk) [µM] |
| --- | --- | --- | --- | --- | --- | --- | --- | --- | --- | --- |
| COc1cc(Nc2ncnc(NC(=O)Cc3ccccc3)n2)cc(OC)c1OC [Compound 679] | 8.85 to 11.4 | > 11.4 | 8.85 to 11.4 | 1.01 to 6.07 | > 11.4 | 1.01 to 6.07 | > 11.4 | > 11.4 | 6.07 to 8.85 | > 11.4 |
| COc1ccc(Nc2ncnc(N(C)c3cccc(C)c3)n2)cc1OC [Compound 800] | > 12.8 | > 12.8 | 1.14 to 6.83 | 1.14 to 6.83 | 9.96 to 12.8 | < 1.14 | > 12.8 | 1.14 to 6.83 | 1.14 to 6.83 | > 12.8 |
| COc1cc(Nc2ncnc(-c3cccnc3NC3CCc4ccccc43)n2)cc(OC)c1OC (centres unmarked) [Compound 846] | 0.85 to 5.1 | > 9.56 | 0.85 to 5.1 | 0.85 to 5.1 | > 9.56 | 5.1 to 7.44 | > 9.56 | > 9.56 | 5.1 to 7.44 | > 9.56 |
| COC(=O)c1ccc(-c2cc(Nc3ncnc(NCc4cccnc4)n3)[nH]n2)cc1 [Compound 809] | 8.7 to 11.2 | > 11.2 | > 11.2 | > 11.2 | 5.96 to 8.7 | > 11.2 | 8.7 to 11.2 | 5.96 to 8.7 | 8.7 to 11.2 | 0.994 to 5.96 |
| COc1ccc(Nc2ncnc(Nc3ccc4c(c3)C(=O)OC4)n2)cc1OC [Compound 894] | < 1.05 | > 11.9 | 1.05 to 6.33 | > 11.9 | > 11.9 | 6.33 to 9.23 | > 11.9 | > 11.9 | > 11.9 | 9.23 to 11.9 |
| O=C(O)CCNC(=O)c1ccc(Nc2ncnc(Nc3cc(-c4ccco4)[nH]n3)n2)cc1 [Compound 885] | 0.921 to 5.52 | 5.52 to 8.06 | < 0.921 | > 10.4 | 0.921 to 5.52 | 0.921 to 5.52 | 8.06 to 10.4 | 0.921 to 5.52 | 0.921 to 5.52 | 0.921 to 5.52 |
| COc1cc(CNc2ncnc(Nc3cc(-c4ccco4)n[nH]3)n2)cc(OC)c1OC [Compound 997] | > 10.6 | > 10.6 | > 10.6 | > 10.6 | > 10.6 | > 10.6 | > 10.6 | > 10.6 | > 10.6 | > 10.6 |
| O=C(O)c1cccc(Nc2ncnc(-n3c(NCc4ccccc4)nc4ccccc43)n2)c1 [Compound 1069] | < 0.914 | > 10.3 | < 0.914 | > 10.3 | > 10.3 | < 0.914 | > 10.3 | > 10.3 | < 0.914 | > 10.3 |
| COC(=O)c1ccc(-c2cc(Nc3ncnc(NC4=NC(=O)CS4)n3)[nH]n2)cc1 [Compound 881] | 0.975 to 5.85 | > 11 | 0.975 to 5.85 | > 11 | 0.975 to 5.85 | 0.975 to 5.85 | > 11 | 0.975 to 5.85 | 0.975 to 5.85 | 0.975 to 5.85 |
| COc1ccc(Nc2ncnc(N(C)CC(O)c3ccccc3)n2)cc1OC (centres unmarked) [Compound 868] | 1.05 to 6.29 | > 11.8 | > 11.8 | > 11.8 | > 11.8 | 1.05 to 6.29 | > 11.8 | > 11.8 | > 11.8 | 1.05 to 6.29 |
| Fc1ccc(CNc2ncccc2-c2ncnc(Nc3cccc(Cn4ccnc4)c3)n2)cc1 [Compound 1109] | < 0.884 | 5.3 to 7.73 | < 0.884 | 0.884 to 5.3 | 0.884 to 5.3 | 0.884 to 5.3 | > 9.94 | 5.3 to 7.73 | 0.884 to 5.3 | < 0.884 |
| COC(=O)c1ccc(-c2cc(Nc3ncnc(NCCN4CCOCC4)n3)[nH]n2)cc1 [Compound 808] | 0.942 to 5.65 | > 10.6 | > 10.6 | > 10.6 | > 10.6 | 5.65 to 8.25 | > 10.6 | > 10.6 | > 10.6 | > 10.6 |
| COc1ccc(CNc2nc3ccccc3n2-c2ncnc(Nc3cccc(C(=O)O)c3)n2)cc1 [Compound 1070] | 0.856 to 5.13 | > 9.63 | 0.856 to 5.13 | > 9.63 | > 9.63 | > 9.63 | 5.13 to 7.49 | > 9.63 | > 9.63 | > 9.63 |
| CN(c1cccc(Cl)c1)c1ncnc(Nc2ccc3nn(Cc4ccccc4)cc3c2)n1 [Compound 673] | 0.905 to 5.43 | 7.92 to 10.2 | 5.43 to 7.92 | 5.43 to 7.92 | > 10.2 | < 0.905 | > 10.2 | 0.905 to 5.43 | 5.43 to 7.92 | > 10.2 |
| NC(=O)Cc1cccc(Nc2ncnc(Nc3cccc(Br)c3)n2)c1 [Compound 966] | < 1 | > 11.3 | 1 to 6.01 | 6.01 to 8.77 | < 1 | < 1 | > 11.3 | > 11.3 | > 11.3 | > 11.3 |
| CN(c1ccc(Cl)c(Cl)c1)c1ncnc(Nc2ccc3c(cnn3Cc3ccccc3)c2)n1 [Compound 903] | 5.04 to 7.35 | > 9.45 | > 9.45 | > 9.45 | > 9.45 | < 0.84 | > 9.45 | 5.04 to 7.35 | 5.04 to 7.35 | > 9.45 |
| COC(=O)c1ccc(-c2cc(Nc3ncnc(NCCNC(C)=O)n3)[nH]n2)cc1 [Compound 819] | 1.01 to 6.05 | > 11.4 | > 11.4 | > 11.4 | > 11.4 | > 11.4 | > 11.4 | > 11.4 | > 11.4 | > 11.4 |
| COc1cccc(Nc2ncnc(Nc3ccc4c(cnn4Cc4ccccc4)c3)n2)c1 [Compound 904] | 0.945 to 5.67 | > 10.6 | 5.67 to 8.26 | 0.945 to 5.67 | 5.67 to 8.26 | < 0.945 | 8.26 to 10.6 | 0.945 to 5.67 | 0.945 to 5.67 | 8.26 to 10.6 |
| Brc1cccc(Nc2ncnc(Nc3cccc(Cn4ccnn4)c3)n2)c1 [Compound 961] | 8.27 to 10.6 | > 10.6 | 0.945 to 5.67 | 5.67 to 8.27 | 0.945 to 5.67 | < 0.945 | > 10.6 | > 10.6 | < 0.945 | 5.67 to 8.27 |
| CN(c1cccc(Br)c1)c1ncnc(Nc2cccc(Cc3nnn[nH]3)c2)n1 [Compound 670] | 0.913 to 5.48 | > 10.3 | 0.913 to 5.48 | 0.913 to 5.48 | > 10.3 | < 0.913 | > 10.3 | < 0.913 | < 0.913 | > 10.3 |
